For experiment [1], the system named is Mycobacterium tuberculosis. As to the kind of experiment: Antimycobacterial activity against isoniazid-resistant Mycobacterium tuberculosis. The class given is functional.
For experiment [2], the system named is Mycobacterium tuberculosis. As to the kind of experiment: Antimycobacterial activity against rifampicin-resistant Mycobacterium tuberculosis. The class given is functional.

In brackets after ≈: the same amount, converted by molar mass.

For the compound `Cc1ccc(-n2c(-c3ccc(Cl)cc3)cc(CN3CCSCC3)c2C)cc1`, the results for the MIC in experiment [1] and in experiment [2] were more than 16 µg/mL and 0.5 µg/mL (≈ 1.26 µM), respectively.

With `CCCc1ccc(-n2c(-c3ccc(Cl)cc3)cc(CN3CCSCC3)c2C)cc1`, the MIC was more than 16 µg/mL in experiment [1] and 0.25 µg/mL (≈ 0.588 µM) in experiment [2].

For the compound `CCc1ccc(-c2cc(CN3CCSCC3)c(C)n2-c2ccc(Cl)cc2)cc1`, the minimum inhibitory concentration (MIC) in experiment [1] came to 16 µg/mL (≈ 38.9 µM); in experiment [2], 0.25 µg/mL (≈ 0.608 µM).

For the compound `Cc1ccc(-c2cc(CN3CCSCC3)c(C)n2-c2ccc(Cl)cc2)cc1`, the minimum inhibitory concentration (MIC) was found to be 16 µg/mL (≈ 40.3 µM) in experiment [1] and 0.5 µg/mL (≈ 1.26 µM) in experiment [2].

Consider `[H]/N=C(/N)N[C@H]1[C@H](O)[C@@H](O)[C@H](O[C@@H]2O[C@@H](C)[C@](O)(C=O)[C@H]2O[C@@H]2O[C@@H](CO)[C@H](O)[C@@H](O)[C@@H]2NC)[C@@H](N/C(N)=N\[H])[C@@H]1O` (stereo in doubt) [STREPTOMYCIN], for which the MIC in experiment [1] was 16 µg/mL (≈ 27.5 µM); in experiment [2], 4 µg/mL (≈ 6.88 µM).

On to `Cc1c(CN2CCSCC2)cc(-c2ccc(C(C)C)cc2)n1-c1ccc(Cl)cc1`, for which the values for the MIC in experiment [1] and in experiment [2] were 8 µg/mL (≈ 18.8 µM) and 0.125 µg/mL (≈ 0.294 µM), respectively.

For `CCCc1ccc(-c2cc(CN3CCSCC3)c(C)n2-c2ccc(Cl)cc2)cc1`, the minimal inhibitory concentration (MIC) was more than 16 µg/mL in experiment [1] and 0.125 µg/mL (≈ 0.294 µM) in experiment [2].

`NNC(=O)c1ccncc1` [ISONIAZID]: the results for the MIC in experiment [1] and in experiment [2] were more than 16 µg/mL and 0.25 µg/mL (≈ 1.82 µM), respectively.

With `Cc1c(CN2CCN(C)CC2)cc(-c2ccc(Cl)cc2)n1-c1ccc(Cl)cc1`, the minimum inhibitory concentration (MIC) in experiment [1] is 2 µg/mL (≈ 4.83 µM); in experiment [2], 1 µg/mL (≈ 2.41 µM).

On to `CO[C@H]1/C=C/O[C@@]2(C)Oc3c(C)c(O)c4c(O)c(c(/C=N/N5CCN(C)CC5)c(O)c4c3C2=O)NC(=O)/C(C)=C\C=C\[C@H](C)[C@H](O)[C@@H](C)[C@@H](O)[C@@H](C)[C@H](OC(C)=O)[C@@H]1C` [RIFAMPIN], for which the MIC in experiment [1] is 0.25 µg/mL (≈ 0.304 µM); in experiment [2], more than 64 µg/mL.

Take `Cc1ccc(-c2cc(CN3CCSCC3)c(C)n2-c2ccc(F)cc2)cc1`: the MIC in experiment [1] turned out to be 32 µg/mL (≈ 84.1 µM); in experiment [2], 0.5 µg/mL (≈ 1.31 µM).

For `CCc1ccc(-n2c(-c3ccc(Cl)cc3)cc(CN3CCSCC3)c2C)cc1`, the figures for the MIC in experiment [1] and in experiment [2] were 16 µg/mL (≈ 38.9 µM) and 0.5 µg/mL (≈ 1.22 µM), respectively.

Consider `Cc1c(CN2CCSCC2)cc(-c2ccc(Cl)cc2)n1-c1ccc(C(C)C)cc1`, for which the figures for the MIC in experiment [1] and in experiment [2] were more than 16 µg/mL and 0.25 µg/mL (≈ 0.588 µM), respectively.

`Cc1c(CN2CCSCC2)cc(-c2ccc(C(C)C)cc2)n1-c1ccc(F)cc1`: the MIC in experiment [1] is more than 16 µg/mL; in experiment [2] it was 0.25 µg/mL (≈ 0.612 µM).

The term MIC denotes the lowest concentration found to suppress growth.

The record behind these values is ChEMBL document CHEMBL1150412, “1,5-Diphenylpyrrole derivatives as antimycobacterial agents. Probing the influence on antimycobacterial activity of lipophilic substituents at the phenyl rings” (J Med Chem, 2008).
